In assay [1] the target is T1, Decaprenylphosphoryl-beta-D-ribose oxidase (Mycobacterium tuberculosis (strain ATCC 25618 / H37Rv)) (UniProt P9WJF1).
T1 sequence (whole entry): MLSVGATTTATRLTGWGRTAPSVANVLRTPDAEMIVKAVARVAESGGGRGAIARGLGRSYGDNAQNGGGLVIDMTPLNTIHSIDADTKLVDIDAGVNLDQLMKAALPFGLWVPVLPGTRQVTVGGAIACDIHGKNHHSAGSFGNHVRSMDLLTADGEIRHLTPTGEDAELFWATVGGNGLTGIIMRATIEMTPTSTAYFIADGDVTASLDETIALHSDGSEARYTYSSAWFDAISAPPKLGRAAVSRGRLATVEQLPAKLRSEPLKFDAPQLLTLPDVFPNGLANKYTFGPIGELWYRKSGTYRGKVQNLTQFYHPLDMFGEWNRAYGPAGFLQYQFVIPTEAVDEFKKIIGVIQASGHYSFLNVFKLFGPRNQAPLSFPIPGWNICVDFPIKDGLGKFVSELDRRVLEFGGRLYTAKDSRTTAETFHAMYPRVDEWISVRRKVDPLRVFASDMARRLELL
Description: Reversible inhibition of recombinant Mycobacterium tuberculosis DprE1 extracted from Escherichia coli BL21(DE3) using FPR/GGPR as substrate by measuring fold change incubated for 60 mins by resazurin dye based fluorescence plate reader analysis relative to (S)-2-Fluoro-N-(2-(2-methyl-1,4-dioxa-8-azaspiro[4.5]decan-8-yl)-4-oxo-6-(trifluoromethyl)-4H-benzo[e][1,3]thiazin-8-yl)acrylamide. For orientation: Alamar Blue is a resazurin reagent that responds to reducing activity.

The target in assay [2] is T1, Decaprenylphosphoryl-beta-D-ribose oxidase (Mycobacterium tuberculosis (strain ATCC 25618 / H37Rv)). Description: Substrate activity at recombinant Mycobacterium tuberculosis DprE1 extracted from Escherichia coli BL21(DE3) assessed as fold change in Km incubated for 60 mins by resazurin dye based fluorescence plate reader analysis relative to FPR.
Assay [3] has the same target. Description: Covalent inhibition of recombinant Mycobacterium tuberculosis DprE1 extracted from Escherichia coli BL21(DE3) assessed as Kinact/Ki ratio using FPR/GGPR as substrate incubated for 60 mins by resazurin dye based fluorescence plate reader analysis.
Assay [4] has the same target. Description: Covalent inhibition of recombinant Mycobacterium tuberculosis DprE1 extracted from Escherichia coli BL21(DE3) assessed as inactivation rate constant (Kinact) using FPR/GGPR as substrate incubated for 60 mins by resazurin dye based fluorescence plate reader analysis.

On to `C=CS(=O)(=O)Nc1cc(C(F)(F)F)cc2c(=O)nc(N3CCC4(CC3)OC[C@H](C)O4)sc12`, for which the fold change (FC) in assay [1] was determined as 8.

For the molecule `CC(C)=CCC/C(C)=C/CC/C(C)=C/CC/C(C)=C/COP(=O)(O)OC1O[C@H](CO)[C@@H](O)[C@H]1O` (some centres undefined), the fold change (FC) in assay [2] came to 22. Consider `C[C@H]1COC2(CCN(c3nc(=O)c4cc(C(F)(F)F)cc(NC(=O)C(C)(C)Br)c4s3)CC2)O1`, for which the Ratio in assay [3] was determined as 2.13 M⁻¹ s⁻¹. In assay [4], the Kinact was 0.067 min⁻¹.
